The subject of the experiment is cancer cell lines classified IM, MSL, M. As to the kind of experiment: PRISM screen compound sensitivity correlated with IM, MSL and M subtype of cell lines (101 gene signature). It is filed as cell-based.
Setting [1] is: subtype (IM, MSL or M) assigned to the compound by negative correlation of PRISM sensitivity with subtype, training cell set (371 cell lines), 101 gene signature.
The mark [2] stands for this setting: subtype (IM, MSL or M) the PRISM compound sensitivity is associated with, training cell set (371 cell lines), 101 gene signature.
Setting [3] is: subtype (IM, MSL or M) with which PRISM compound sensitivity is negatively correlated, training cell set, 101 gene signature.
Where [4] appears, read: subtype (IM, MSL, M) with which compound sensitivity correlates, test set.
Setting [5] is: subtype (IM, MSL, M) with which compound sensitivity correlates, training set.
[6] abbreviates: subtype with which compound sensitivity correlates, test cell lines.
Setting [7] is: subtype with which compound sensitivity correlates, training cell lines.
Where [8] appears, read: subtype (IM, MSL or M) with which compound sensitivity is negatively correlated, training cell set (371 cell lines), 101 gene signature.

Read-outs that look alike come from different tables or passages of the source.

On to `CC(C)NC(=O)COc1cccc(-c2nc(Nc3ccc4[nH]ncc4c3)c3ccccc3n2)c1` [KD025], for which, under setting [1], the TNBCType train result is “MSL”.
For `O=C(/C=C/c1ccc(O)c(O)c1)OCCc1ccccc1` [caffeic-acid-phenethyl-ester], under setting [2], the TNBCType train entry is reported as “MSL”.
Turning to `CNC(=O)c1cccc2cc(Oc3ccnc4cc(OCC5(N)CC5)c(OC)cc34)ccc12` [lucitanib], the TNBCType train result under setting [3] is listed as “MSL”.
Same read-out and setting: as for `CN(C)C(=S)SC(=S)N(C)C` [tetramethylthiuram-monosulfide], the entry is “MSL”.
In the case of `COc1cc(OC)cc(N(CCNC(C)C)c2ccc3ncc(-c4cnn(C)c4)nc3c2)c1` [erdafitinib], the TNBCType train result is given as “MSL” under setting [1], “MSL” under setting [5] and “MSL” under setting [7]. Also, the TNBCType test result by setting is: under setting [4], “MSL/M”; under setting [6], “MSL/M”.
Take `Nc1cc(F)ccc1NC(=O)/C=C/c1cnn(C/C=C/c2ccccc2)c1` [RGFP966]: the TNBCType train result under setting [1] was “MSL”.
The same measure, in the same setting: to `Nc1ccn([C@H]2CO[C@@H](CO)S2)c(=O)n1` [apricitabine] belongs “MSL”; to `Oc1ccc(C2=Cc3ccc(O)cc3OC2)cc1` [idronoxil], “MSL”.
Same read-out and setting: as for `CN(C)c1cccc(-c2c3c(=O)n(-c4ccccc4Cl)[nH]c3cc(=O)n2C)c1` [GKT137831], the entry is “MSL”.
As for `Cc1ccc2c(c1)[C@]13CCCC[C@@H]1[C@H](C2)N(C)CC3` [dimemorfan], the TNBCType train entry under setting [3] is “MSL”.
Regarding `CC[C@@H]1/C=C(\C)C[C@H](C)C[C@H](OC)[C@H]2O[C@@](O)(C(=O)C(=O)N3CCCC[C@H]3C(=O)O[C@H](/C(C)=C/[C@@H]3CC[C@H](Cl)[C@H](OC)C3)[C@H](C)[C@@H](O)CC1=O)[C@H](C)C[C@@H]2OC` [pimecrolimus], the TNBCType train entry under setting [1] is recorded as “MSL”.
On to `CN1CC2c3ccccc3Oc3ccc(Cl)cc3C2C1` (stereo not shown) [asenapine], for which, under setting [2], the TNBCType train entry is “MSL”.
As to `C[C@@H](c1nc(-c2ccc(C#N)cc2)cs1)[C@](O)(Cn1cncn1)c1cc(F)ccc1F` [isavuconazole], under setting [8], the TNBCType train entry is reported as “MSL”.
As to `CCCCOc1nc(N)c2c(n1)N(Cc1cccc(CN3CCCC3)c1)CC(=O)N2` [GS-9620], under setting [1], the TNBCType train entry is recorded as “MSL”.
As to `CC[C@H]1OC(=O)[C@@](C)(F)C(=O)[C@H](C)[C@@H](O[C@@H]2O[C@H](C)C[C@H](N(C)C)[C@H]2O)[C@](C)(OC)C[C@@H](C)C(=O)[C@H](C)[C@H]2N(CCCCn3cc(-c4cccc(N)c4)nn3)C(=O)O[C@]12C` [solithromycin], the TNBCType train result under setting [3] is “MSL”.
`CCOC(=O)c1ncn2c1CN(C)C(=O)c1cc(F)ccc1-2` [flumazenil]: the TNBCType train result under setting [2] is listed as “MSL”.
Turning to `C[C@]12CC[C@H]3[C@@H](CC[C@@]45O[C@@H]4C(O)=C(C#N)C[C@]35C)[C@@H]1CC[C@@H]2O` [trilostane], the TNBCType train result under setting [8] is listed as “MSL”.
For the compound `COc1cc2nccc(Oc3ccc(NC(=O)NC4CC4)c(Cl)c3)c2cc1C(N)=O` [lenvatinib], the TNBCType train result under setting [3] is “MSL”.
On the same count and under the same terms, as for `CC(C)Oc1ccc(-c2nc(-c3cccc4c3CC[C@@H]4NCCO)no2)cc1C#N` [ozanimod], the entry is “MSL”.
With `C[C@H]1CNCCCN1S(=O)(=O)c1cccc2cncc(F)c12` [ripasudil], under setting [3], the TNBCType train entry is reported as “MSL”.
On to `Cc1ccc(-c2ccc(C)cn2)nc1` [abametapir], for which, under setting [1], the TNBCType train entry is given as “MSL”.
Regarding `O=C(Cn1c(=O)sc2ccc(Cl)cc21)N1CCN(CCO)CC1` [tiaramide], the TNBCType train entry under setting [3] was “MSL”.
Regarding `O=C1C=CC[C@@H]2[C@H]3CCCN4CCC[C@@H](CN12)[C@@H]34` [sophocarpine], the TNBCType train result under setting [1] is reported as “MSL”.
Take `COc1cccc(C(=O)CCN[C@@H](C)[C@H](O)c2ccccc2)c1` [oxyfedrine]: the TNBCType train result under setting [1] is “MSL”.
Consider `COc1ccc(N(C)c2nc(C)nc3ccccc23)cc1` [verubulin], for which the TNBCType train entry under setting [3] is listed as “MSL”.
With `CCN1CCC[C@H]1CNC(=O)c1cc(S(N)(=O)=O)ccc1OC` [levosulpiride], the TNBCType train result under setting [3] is recorded as “MSL”.
In the case of `Cc1nc2n(c(=O)c1CCN1CCC(c3noc4cc(F)ccc34)CC1)CCCC2` [risperidone], the TNBCType train entry is reported as “MSL”.
Regarding `NS(=O)(=O)c1cc(Cl)c(Cl)c(S(N)(=O)=O)c1` [diclofenamide], under setting [1], the TNBCType train result is “MSL”.
`O=C(O)c1ccccc1OP(=O)(O)O` [fosfosal]: under setting [3], the TNBCType train result is “MSL”.
For the compound `C[C@@H](c1nc(-c2ccc(C#N)cc2)cs1)[C@](O)(Cn1cncn1)c1ccc(F)cc1F` [ravuconazole], the TNBCType train entry under setting [8] is recorded as “MSL”.
With `CSc1ccc(C(=O)c2[nH]c(=O)[nH]c2C)cc1` [enoximone], under setting [3], the TNBCType train result is “MSL”.
With `Cc1cn2nc([C@@H]3CCCCN3C(=O)c3cc(Cl)ccc3NS(C)(=O)=O)cc2nc1N1CC[C@H](N)C1` [presatovir], the TNBCType train entry under setting [3] is on record as “MSL”.
In the case of `Nc1ccc(S(N)(=O)=O)cc1` [sulfanilamide], the TNBCType train entry under setting [8] was “MSL”.
For `O=C(/C=C/c1ccc(O)c(O)c1)c1ccc(O)cc1O` [butein], the TNBCType train result under setting [8] is reported as “MSL”.
For `CC(=O)N1N=C(c2ccc(N)cc2)c2cc3c(cc2C[C@H]1C)OCO3` [talampanel], the TNBCType train entry under setting [1] was “MSL”.
In the case of `CCOC(=O)COc1ccc2c(c1)C[C@@H](NC[C@H](O)c1cccc(Cl)c1)CC2` [amibegron], the TNBCType train entry under setting [3] is “MSL”.
As to `N#Cc1cc(-c2n[nH]c(-c3ccncc3)n2)ccn1` [topiroxostat], the TNBCType train result under setting [1] is “MSL”.
Take `OC1CCC(Nc2nc(-c3ccccc3)nc3[nH]ccc23)CC1` (stereo not shown) [SLV-320]: under setting [3], the TNBCType train result was “MSL”.
`COCC(O)Cn1ccnc1[N+](=O)[O-]` (stereo not shown) [misonidazole]: the TNBCType train result was “MSL”.
On to `C=Cc1cc(O)cc2nc(-c3ccc(O)c(F)c3)oc12` [prinaberel], for which the TNBCType train entry under setting [1] is listed as “MSL”.
As for `COc1cc2c3cc1Oc1cc(ccc1O)C[C@@H]1c4c(cc(OC)c(O)c4Oc4ccc(cc4)C[C@@H]3N(C)CC2)CC[N+]1(C)C` [tubocurarine], under setting [2], the TNBCType train entry was “MSL”.
In the case of `CCN(CC)CCn1c(=O)c(Cc2ccc(OC)cc2)nc2ccccc21` [caroverine], under setting [1], the TNBCType train entry is reported as “MSL”.
For `CC(O)c1cc(C(=O)N[C@@H](C)Cn2ccc(-c3ccc(C#N)c(Cl)c3)n2)[nH]n1` (stereo partly shown) [ODM-201], the TNBCType train result under setting [8] is “MSL”.
As for `N[C@H](C(=O)O)[C@H](O)c1ccc(O)c(O)c1` [droxidopa], the TNBCType train entry under setting [3] was “MSL”.
Regarding `Cc1[nH]cnc1-c1ccc(Cl)cc1` [lofemizole], the TNBCType train entry under setting [8] is recorded as “MSL”.
In the case of `CC[C@H](C)C(=O)O[C@H]1CCC=C2C=C[C@H](C)[C@H](CC[C@@H]3C[C@@H](O)CC(=O)O3)[C@H]21` [mevastatin], the TNBCType train result under setting [2] is given as “MSL” and the TNBCType train entry under setting [7] was “MSL”. The TNBCType test entry under setting [6] was “MSL”.
For the compound `O=C(Cn1ccnc1[N+](=O)[O-])NCCO` [etanidazole], the TNBCType train entry under setting [2] was “MSL”.
For the compound `C[C@]12CC[C@H](O)C[C@H]1CC[C@@H]1[C@@H]2CC[C@]2(C)[C@@H](c3ccc(=O)oc3)C[C@H]3O[C@]132` [resibufogenin], the TNBCType train result was “MSL” under setting [3] and “MSL” under setting [5]. Also, the TNBCType test result under setting [4] is listed as “MSL”.
On to `O=C(OCC(O)CO)c1ccccc1Nc1ccnc2c(C(F)(F)F)cccc12` (stereo not shown) [floctafenine], for which the TNBCType train result under setting [8] is on record as “MSL”.
As for `CC(C)NC(=N)NC(=N)Nc1ccc(Cl)c(Cl)c1` [chlorproguanil], under setting [3], the TNBCType train result is recorded as “MSL”.

Source of the values: patent publication US20250140406A1, “CLASSIFYING TUMORS AND PREDICTING RESPONSIVENESS” (Oncocyte Corporation, priority 2022, published 2025).
